Assay results reported in patent US20100009934A1, “BETA ADRENERGIC RECEPTOR AGONISTS FOR THE TREATMENT OF B-CELL PROLIFERATIVE DISORDERS” (CombinatoRx, Incorporated, priority 2008, published 2010).
“And” between values parts separate entries of the source, which are not always exact repeats. Equal entries are not always repeated. Where two headings read alike, the source gives them in different places.

Tests used:
[1] = tested on: Human Multiple Myeloma Cells (MM.1S); conditions: Salmeterol 0 μM (single agent), DEX (μM): 0.15, 0.076, 0.038, 0.019, 0.0096
MM.1S cells = experiment: Annexin V/PI FACS assay of control MM.1S and cells cultured one month with salmeterol or salbutamol; assay type: cell-based, human
Experimental: Forty eight hours later, the percent of cells positive for Annexin V and propidium iodide (PI) was determined using FACS (FIG. 5).

[2] = tested on: Human Multiple Myeloma Cells (MM.1S); experiment: cells; conditions: MM1.S
[3] = tested on: Human Multiple Myeloma Cells (MM.1S); experiment: Anti-proliferation assay (ATPLite, 72 hours), MM.1S
[4] = tested on: human multiple myeloma xenografts (MM1S); experiment: MM.1S xenograft model in SCID mice; assay type: in vivo, mouse; conditions: Dex 1 mg/kg or salmeterol 10 mg/kg, subcutaneous daily
Experimental: The human multiple myeloma cell line MM1S was injected subcutaneously into the flanks of SCID mice. Five days following the injection of MM1S cells, animals were randomized into the following four treatment groups (n=6-7) based on tumor size.
Group 1—Vehicle (90% PBS+10% EtOH)
The prepared test, positive, and negative control substances were administered via subcutaneous injection daily for up to 85 Days. During the treatment period, tumor volume and animal body weights were measured 3 times per week (Monday, Wednesday and Friday). The animals were removed from the study if there was overall poor body condition, tumor volume above 3000 mm^3, body weight loss greater than or equal to 20% or ulcerated tumors.
The slope of the tumor volume growth of each animal was calculated from the initial study day until the day each animal was removed from the study. From these slopes the mean change in tumor volume per study day was calculated.

[5] = tested on: Human Multiple Myeloma Cells (MM.1S) cultured in the presence of BAR agonist for one month; experiment: Antiproliferative activity on MM.1S cultured one month in the presence of salmeterol or salbutamol; assay type: cell-based; conditions: Homo sapiens, MM1.S, […] dexamethasone; cells cultured one month in salmeterol (64 nM), Table 48; read-out: inhibition of proliferation
Text: A recurrent problem in cancer therapy is that prolonged exposure of tumor cells to chemotherapeutic agents can generate cells resistant to agents that initially have antiproliferative or cell killing activity. […] Cells cultured for one month in the presence of BAR agonist were washed to remove drug and put into 384 well plates for 9×9 dose matrix combination screening with BAR agonists and dexamethasone.

[6] = tested on: multiple myeloma tumor cells from patients; experiment: MTT cell viability assay, multiple myeloma patient tumor cells; conditions: patient 1 tumor cells, 48 hours, MTT; Salmeterol 0 nM (single agent); DEX (μM): 4.0, 2.0, 1.0, 0.5, 0.25, 0.125, 0.0625
Text: Tumor cells were obtained via bone marrow aspirates and affinity selected using CD138-linked magnetic beads.

[7] = tested on: Human Multiple Myeloma Cells (ANBL-6)
[8] = tested on: Human Multiple Myeloma Cells (MM.1S)

## C[C@@H]1C[C@H]2[C@@H]3CCC4=CC(=O)C=C[C@]4(C)[C@@]3(F)[C@@H](O)C[C@]2(C)[C@@]1(O)C(=O)CO [dexamethasone]
[1]; +10 ng/ml IL-6
  percent inhibition of cell proliferation: 26%
[1]; no IL-6
  percent inhibition of cell proliferation: 45% and 44% and 32% and 27%
MM.1S cells; cells exposed to salmeterol for one month, 8 nM dexamethasone, 48 hours
  Annexin V/PI+ cells: 47%
MM.1S cells; cells exposed to salmeterol for one month, 80 nM dexamethasone, 48 hours
  Annexin V/PI+ cells: 65%
MM.1S cells; control cells, 8 nM dexamethasone, 48 hours (FIG. 5)
  Annexin V/PI+ cells: 8%
MM.1S cells; control cells, 80 nM dexamethasone, 48 hours (FIG. 5)
  Annexin V/PI+ cells: 45%
[2]; read-out: inhibition of proliferation, 0.15 μM dexamethasone, 10 ng/ml IL-6 (Table 53)
  inhibition at 0.15 µM: 24%
[2]; read-out: inhibition of proliferation, 0.15 μM dexamethasone, no IL-6 (Table 52)
  inhibition at 0.15 µM: 52%
[3]; Clenbuterol 0 μM (single agent), Dexamethasone (μM): 0.15, 0.076, 0.038, 0.019, 0.0095, no ICI 118,551
  percent inhibition of cell proliferation: 47% and 38% and 70% and 63% and 56%
[3]; naïve MM.1S, Salbutamol 0 μM (single agent), DEX (μM) by row: r8 2.0, r9 0.666, r10 0.23, r11 0.074, r12 0.024, r13 0.0082, r14 0.00274, r15 0.0009
  percent inhibition of cell proliferation: 75%
[4]
  study day by which all animals of the group were removed: ≤ 66 study day
[5]
  inhibition at […]: 51%
[6]
  Reduction in Cell Viability: 50% and 56% and 53% and 46% and 47%
[7]
  inhibition: 6.13%
[8]
  inhibition: 39%
